Measurements as given in US20250313528A1, “NOVEL COMPOUND AND PHARMACEUTICAL COMPOSITION FOR PREVENTING OR TREATING PULMONARY FIBROSIS COMPRISING SAME AS ACTIVE INGREDIENT” (GIL MEDICAL CENTER, priority 2022, published 2025).

How the values were obtained:
[1] = tested on: FN, COL1A1, and α-SMA; experiment: qRT-PCR of fibrosis-related genes in TGF-β1-induced DHLF-IPF cells; assay type: cell-based, human; conditions: 10 μM pretreatment 1 hour, TGF-β1 1 ng/ml 48 hours, FIG. 4c/4d
Procedure: MRC-5 and DHLF-IPF cells were each cultured in growth medium, and the medium was removed. […] The medium was then removed, and the cells were washed once with PBS. Intracellular total RNA was extracted from the cultured cells using TRIzol reagent (TaKaRa Bio Inc., Japan) for gene expression analysis. 1 mL of TRIzol reagent was added to lyse the cells and denature the tissue. The lysate was transferred to each 1.5 mL tube, and 200 μL of chloroform was added thereto, followed by vortexing for 20 seconds to ensure complete mixing. After incubating at room temperature for 15 minutes, the mixture was centrifuged at 14,000 rpm for 20 minutes to obtain the supernatant. After adding an equal volume of isopropyl alcohol, the tubes were inverted and incubated at room temperature for 10 minutes. The sample was centrifuged at 14,000 rpm for 15 minutes to obtain an RNA pellet, which was washed by centrifugation with 70% ethanol for use on RNA at 14,000 rpm for 5 minutes, and dried for 5 minutes. The dried RNA sample was added with 20 μL of distilled water treated with 0.1% diethyl pyrocarbonate (DEPC) to dissolve the pallet and the resultant was used as a sample for cDNA synthesis. 1 μL of the same was used to measure the RNA concentration and purity at O.D. 260/280 nm using a Nanodrop.
Single-stranded cDNA synthesis was performed by mixing 1 μg of the extracted total RNA with 1 μL of oligo-d(T) primer ([…]) and 10 mM dNTP (TaKaRa Bio Inc., Japan), reacting at 65° C. for 5 minutes, followed by rapid cooling. To this template, 4 μL of 5×RT buffer, 0.5 μL of RNA inhibitor, and 100 units of RTase (TaKaRa Bio Inc., Japan) were added, and the total volume was adjusted to 20 μL using DEPC-treated distilled water. […]
Each gene expression level was measured using real-time PCR. […] The specificity of the amplified product was confirmed through melting curve analysis, and the target genes were quantified and compared using GAPDH as a control gene.

[2] = tested on: TGF-β1 signaling pathway; experiment: Western blotting of proteins related to TGF-β1 signaling pathway in DHLF-IPF; assay type: cell-based, human; conditions: for expression level of Rock protein / expression levels of MRT/SRF in the cytoplasm and nucleus: increased by TGF-β1 treatment
Procedure: Specifically, to extract fibronectin and α-SMA proteins, the cells were washed once with cold PBS and then RIPA buffer (150 mM NaCl, 0.5% Triton X-100, 50 mM Tris-HCl, pH 7.4, 25 mM NaF, 20 mM EGTA), which was added with a protease inhibitor cocktail, was added thereto to lyse the cells. Then, the proteins were quantified using a BCA protein assay kit. All protein samples were subjected to electrophoresis at 10 μg on 8% to 10% PAGE gels and then transferred to 0.2 μm PVDF membranes (EMD Millipore, MA, USA). The membranes to which the protein was transferred were blocked with 5% BSA or 5% skim milk for 1 hour, and then primary antibodies were added thereto and incubated overnight at 4° C. The following day, the membranes were washed three times with PBST, and then HRP-conjugated secondary antibodies were added and reacted at room temperature for 1 hour. The PVDF membranes prepared through such procedures were smeared with ECL (Luminata™ Crescendo, EMD Millipore) and exposed to a fluorescence reader to confirm the level of protein expression.
The TGF-β1 signaling pathway can be activated through both Smad-dependent and Smad-independent pathways. The TGF-β/Smad signaling, which is a Smad-dependent pathway, is a crucial pathway that regulates the synthesis of extracellular matrix components. The Smad-independent (TGF-β/non-Smad) pathway is influenced by PI3K/AKT/mTOR and MAPK (JNK, ERK, p38), which are known to be involved in cell proliferation and growth. Based on this mechanism, the protein expression related to the TGF-β1 signaling pathway was comparatively analyzed using the same Western blotting method conducted in Example 2.

[3] = tested on: bleomycin (BLM)-induced pulmonary fibrosis animal models; experiment: Body weight and lung weight in bleomycin-induced pulmonary fibrosis animal model; assay type: in vivo, C57BL/6N mice; conditions: BLM mice; for body weight gain during the experimental period: three times a week for three weeks; for lung weight: end of the experiment, vs normal group and BLM group
Procedure: The inhibitory effects of the finally selected Compound 1 and Compound 2 on pulmonary fibrosis were examined in bleomycin (BLM)-induced pulmonary fibrosis animal models.
(§1) Specifically, 7-week-old C57BL/6N mice were exposed to BLM (3-5 units/kg) via the airway. The compounds were administered orally at doses of 200 μg/kg and 500 μg/kg for Compound 1, and 100 μg/kg and 200 μg/kg for Compound 2, three times a week for three weeks starting the day after BLM exposure. Body weight gain was periodically measured during the experimental period, and lung weight was measured at the end of the experiment.

[4] = tested on: fibronectin, collagen 1, α-SMA; experiment: Immunohistochemistry of fibrosis-related proteins in lung tissue, BLM model; assay type: in vivo, C57BL/6N mice; conditions: BLM mice; for expression of α-SMA, collagen, and fibronectin in lung tissue (IHC): compared to the BLM group
Procedure: as §1
Specifically, the excised lung tissue was embedded in paraffin and sectioned into 4 μm slices using a microtome. These tissue sections were used for H&E, MT stain, and Immunohistochemistry (IHC). Each experiment was conducted by deparaffinizing and rehydrating the sections using xylene and ethanol. For IHC, the LSAB2 system HRP (DAKO, Carpinteria, CA, USA) kit was used. Antibody retrieval was performed in 0.1 mM citric acid (pH 6), and the experiment was conducted according to the provided instructions. The sections were blocked with blocking buffer at room temperature for 1 hour, then incubated overnight at 4° C. with primary antibodies (fibronectin, collagen 1, α-SMA). After blocking with secondary antibodies at room temperature for 1 hour, the Streptavidin-HRP system was used for 10 minutes, followed by exposure to DAB solution, hematoxylin staining, dehydration, clearing, and mounting with Canada balsam. The stained slides were examined under an optical microscope (BK51, Olympus, Japan). The staining results were quantified using the Image J program.
To examine the key factors involved in fibrosis, immunohistochemistry (IHC) was performed using the same method as in Example 6-3.

| Structure (SMILES) | gene expression levels of FN, COL1A1, and α-SMA [1] | activity of p-AKT ([2]; TGF-β1) | activity of p-p38 ([2]; TGF-β1) | phosphorylation of Smad-2 ([2]; TGF-β1) | phosphorylation of Smad-7 ([2]; TGF-β1) | expression level of Rock protein [2] | expression levels of MRT/SRF in the cytoplasm and nucleus [2] | body weight gain during the experimental period ([3]; 200 μg/kg orally) | body weight gain during the experimental period ([3]; 500 μg/kg orally) | concentration with the best inhibitory effect on weight recovery and related protein expression ([4]; 200 vs 500 μg/kg) | expression of α-SMA, collagen, and fibronectin in lung tissue (IHC) [4] | activity of p-ERK ([2]; TGF-β1) | activity of p-JNK ([2]; TGF-β1) | phosphorylation of Smad-3 ([2]; TGF-β1) | lung weight ([3]; 100 μg/kg orally) | body weight gain during the experimental period ([3]; 100 μg/kg orally) | lung weight ([3]; 200 μg/kg orally) |
| --- | --- | --- | --- | --- | --- | --- | --- | --- | --- | --- | --- | --- | --- | --- | --- | --- | --- |
| CCOC(=O)C(CSC(=S)NCCCC[S+](C)[O-])NC(C)=O (centres unmarked) [Compound 1] | significantly reducing the expression levels compared to sulforaphane | significantly reducing the activity | significantly reducing the activity | inhibited | increased | significantly reduced | significantly reduced | steady increase | initially decreased and then gradually increased | 200 µg/kg | significant reduction |  |  |  |  |  |  |
| C=CCOC(=O)C(CSC(=S)NCCCC[S+](C)[O-])NC(C)=O (centres unmarked) [Compound 2] | significantly reducing the expression levels compared to sulforaphane | significantly reduced the activity | reducing the activity | inhibited | increased | significantly reduced | significantly reduced | steady increase in body weight, approaching levels similar to the normal group |  |  | significant reduction in the BLM+GSF-018 group in a dose-dependent manner | reducing the activity | reducing the activity | inhibited | similarly lower levels | steady increase in body weight, approaching levels similar to the normal group | similarly lower levels |
